Consider eight compounds from ChEMBL document CHEMBL1145264, “Synthesis of tricyclic analogs of stephaoxocanidine and their evaluation as acetylcholinesterase inhibitors” (Bioorg Med Chem Lett, 2005).

Each structure is given as a SMILES string. Several values for one entry are separate records, joined by “and”; a condition that tells them apart may be missing. Equal entries are not always repeated.

The target in the experiment is Acetylcholinesterase (Homo sapiens, UniProt P22303).
Acetylcholinesterase, sequence (P22303 whole entry): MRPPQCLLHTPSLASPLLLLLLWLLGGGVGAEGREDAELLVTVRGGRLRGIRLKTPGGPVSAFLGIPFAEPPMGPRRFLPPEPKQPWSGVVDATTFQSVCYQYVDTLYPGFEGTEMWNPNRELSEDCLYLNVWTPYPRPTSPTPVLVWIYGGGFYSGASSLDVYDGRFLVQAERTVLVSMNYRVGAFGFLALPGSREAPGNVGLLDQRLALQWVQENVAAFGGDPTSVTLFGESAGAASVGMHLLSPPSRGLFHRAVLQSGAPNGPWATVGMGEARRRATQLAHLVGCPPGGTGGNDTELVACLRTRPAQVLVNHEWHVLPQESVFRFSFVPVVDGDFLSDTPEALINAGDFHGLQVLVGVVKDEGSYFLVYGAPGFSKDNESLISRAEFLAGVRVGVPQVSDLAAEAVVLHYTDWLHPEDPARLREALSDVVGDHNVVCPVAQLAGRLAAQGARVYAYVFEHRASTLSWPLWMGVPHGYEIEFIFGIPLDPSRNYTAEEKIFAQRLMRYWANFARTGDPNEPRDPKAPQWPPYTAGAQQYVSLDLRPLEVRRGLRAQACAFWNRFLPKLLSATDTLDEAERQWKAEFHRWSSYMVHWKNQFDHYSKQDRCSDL
Description: Inhibitory concentration against acetylcholinesterase
The term IC50 denotes the concentration that gives 50% inhibition. The compound `COc1cc2ccnc3c2c(c1OC)COC3(O)CC(O)CO` (stereo not drawn) returned an IC50 of 109 µM. In the case of `COc1cc2cc[n+](C)c3c2c(c1OC)C(Br)OC3=O` (stereo not drawn) it was 105 µM and 120 µM; in that of `COc1cc2ccnc3c2c(c1OC)COC3(CC(O)CO)OC` (stereo not drawn), 96 µM and 95.4 µM.

As to `C=CCC1(OC)OCc2c(OC)c(OC)cc3ccnc1c23` (stereo not drawn), the IC50 was 100 µM and 99.6 µM. With `COc1cc2ccnc3c2c(c1OC)COC3(CCCO)OC` (stereo not drawn), half-maximal inhibition (IC50) was put at 137 µM. Then `COc1cc2ccnc3c2c(c1OC)COC3=O`, with 19.6 µM.

`C=CCC1(O)OCc2c(OC)c(OC)cc3ccnc1c23` (stereo not drawn) registered an IC50 of 174 µM. Then `COc1cc2ccnc3c2c(c1OC)C(Br)OC3=O` (stereo not drawn), with 46 µM and 46.3 µM.
